Like-named read-outs stand apart in the source and are kept apart here.
Columns and labels:
Format in all cases: cell-based
[1] = test system: CEM (T-lymphoblastoid cell line)
Experimental: (§1) The compounds were evaluated for their potential toxic effects on uninfected PHA-stimulated human PBM cells, in CEM (T-lymphoblastoid cell line obtained from American Type Culture Collection, Rockville, Md.) and Vero (African green monkey kidney) cells. PBM cells were obtained from whole blood of healthy seronegative donors (HIV-1 and hepatitis B virus) by single-step Ficoll-Hypaque discontinous gradient centrifugation. Log phase Vero, CEM and PHA-stimulated human PBM cells were seeded at a density of 5×10^3, 2.5×10^3 and 5×10^4 cells/well respectively. All of the cells were plated in 96-well cell culture plates containing ten-fold serial dilutions of the test drug. The cultures were incubated for 3, 4 and 5 days for Vero, CEM, and PBM cells, respectively in a humidified 5% CO2-air at 37° C. At the end of incubation, MTT tetrazolium dye solution (Cell titer 96®, Promega, Madison, Wis.) was added to each well and incubated overnight. The reaction was stopped with stop solubilization solution (Promega, Madison, Wis.). The plates were incubated for 5 hours to ensure that the formazan crystals were dissolved. The plates were read at a wavelength of 570 nm using an ELISA plate reader (Bio-tek instruments, Inc., Winooski, Vt., Model # EL 312e). […] Bookmark not defined.

HIV-1LAI = assay: HIV assay in human PBM cells (RT activity of supernatant); settings: 5 days, read-out: Anti-HIV-1 Activity (EC50)
Source text: (§2) Human peripheral blood mononuclear (PBM) cells (obtained from Atlanta Red Cross) were isolated by Ficoll-Hypaque discontinuous gradient centrifugation from healthy seronegative donors. Cells were stimulated with phytohemagglutinin A (Difco, Sparks, Md.) for 2-3 days prior to use. HIV-1LAI obtained from the Centers for Disease Control and Prevention (Atlanta, Ga.) was used as the standard reference virus for the antiviral assays. The molecular infetious clones HIV-1xxBru and HIV-1M184Vpin were obtained from Dr. John Mellors (University of Pittsburgh). Infections were done in bulk for one hour, either with 100 TCID50/1×10^7 cells for a flask (T25) assay or with 200 TCID50/6×10^5 cells/well for a 24 well plate assay. Cells were added to a plate or flask containing a ten-fold serial dilution of the test compound. Assay medium was RPMI-1640 supplemented with heat inactivated 16% fetal bovine serum, 1.6 mM L-glutamine, 80 IU/ml penicillin, 80 μg/ml streptomycin, 0.0008% DEAE-Dextran, 0.045% sodium bicarbonate, and 26 IU/ml recombinant interleukin-2 (Chiron Corp, Emeryville, Calif.). AZT was used as a positive control for the assay. Untreated and uninfected PBM cells were grown in parallel at equivalent cell concentrations as controls. The cell cultures were maintained in a humidified 5% CO2-air at 37° C. for 5 days and supernatants were collected for reverse transcriptase (RT) activity.
(§3) Supernatants were centrifuged at 12,000 rpm for 2 hours to pellet the virus. The pellet was solubilized with vortexing in 100 μl virus solubilization buffer (VSB) containing 0.5% Triton X-100, 0.8 M NaCl, 0.5 mM phenylmethylsulfonyl fluoride, 20% glycerol, and 0.05 M Tris, pH 7.8. Ten μL of each sample were added to 75 μL RT reaction mixture (0.06 M Tris, pH 7.8, 0.012 M MgCl2, 0.006 M dithiothreitol, 0.006 mg/ml poly (rA)n, oligo (dT)12-18, 96 μg/ml dATP, and 1 μM of 0.08 mCi/ml ^3H-thymidine triphosphate (Moravek Biochemicals, Brea, Calif.) and incubated at 37° C. for 2 hours. The reaction was stopped by the addition of 100 μL 10% trichloroacetic acid containing 0.05% sodium pyrophosphate. The acid insoluble product was harvested onto filter paper using a Packard Harvester (Meriden, Conn.), and the RT activity was read on a Packard Direct Beta Counter (Meriden, Conn.). The RT results were expressed in counts per minute (CPM) per milliliter.

HIV-1M184V = assay: Antiviral activity against lamivudine-resistant (HIV-1M184V) mutant strain in human PBM cells; settings: for EC90: read-out: M184V (EC90)
Source text: as §2, with “AZT was used as a positive control for the assay.” left out
as §3
A single mutation at residue 184 (M184V) in the catalytic domain of HIV-1 RT bring about a high-level of resistance to 3TC, causing the 50% inhibitory concentration of 3TC to be increased at least 1,000-fold (Schinazi, R. F.; Lloyd, Jr. R. M.; Nguyen, M. -H.; Cannon, D. L.; McMillan, A.; Ilksoy, N.; Chu, C. K.; Liotta, D. C.; Bazni, H. Z.; Mellors, J. W. Characterizatin of human immunodeficiency viruses resistant to oxthiolane-cytosine nucleosides. Antimicrob Agents Chemother. 1993, 37, 875-881; Tisdale, M.; Kemp, S. D.; Parry, N. R.; Larder, B. A. Rapid in vitro selection of human immunodeficiency virus type 1 resistant to 3′-thiacytidine inhibitors due to a mutation in the YMDD region of reverse transcnptase. Proc. Natl. Acad. Sci. USA 1993, 90, 5653-5656), contributing to the failure of anti-AIDS combination therapy. […] K. Synthesis and anti-HIV and anti-HBV activities of 2′-fluoro-2′,3′-unsaturated L-nucleosides.

HIV-1xxBRU = assay: Antiviral activity in human PBM cells, HIV-1xxBRU; settings: read-out: xxBRU (EC90)
Source text: as §2, with “AZT was used as a positive control for the assay.” left out
as §3, with “milliliter. […]” for “milliliter.”

[2] = test system: Vero (African green monkey kidney) cells; assay: in vitro
Experimental: as §1

[3] = Human immunodeficiency virus 1, PBMC

Compound	IC50 ([1]; human, 4 days) [µM]	EC50 (HIV-1LAI; Human immunodeficiency virus 1, PBMC, 120 h) [µM]	EC90 (HIV-1M184V; [3]) [µM]	EC90 (HIV-1xxBRU; [3]) [µM]	IC50 [2] [µM]	IC50 [1] [µM]	EC50 (HIV-1LAI) [µM]	FI, fold increase (EC90 HIV-1M184V/EC90 HIV-1xxBRU) (HIV-1M184V; human PBM cells)	EC90 (HIV-1M184V; human PBM cells) [µM]	EC90 (HIV-1xxBRU; human PBM cells) [µM]
Cc1cn([C@H]2C[C@H](N=[N+]=[N-])[C@@H](CO)O2)c(=O)[nH]c1=O [AZT, 3′-azido-3′-deoxythymidine, reference compound]	29	0.004	0.003	0.01						
Nc1nc(=O)n([C@@H]2S[C@H](CO)C=C2F)cc1F [Compound D-18, (−)-1-[(1S,4R)-2,3-dideoxy-2,3-didehydro-2-fluoro-4-thio-β-D-ribofuranosyl]-5-fluorocytosine]					> 100	> 100	11.6			
Nc1ccn([C@H]2S[C@@H](CO)C=C2F)c(=O)n1 [Compound L-17, (+)-1-[(1S,4R)-2,3-dideoxy-2,3-didehydro-2-fluoro-4-thio-β-L-ribofuranosyl]-cytosine]					> 100	> 100		>100	> 100	1.4
Nc1ccn([C@@H]2CS[C@H](CO)O2)c(=O)n1 [Compound 3TC, (−)-β-2′,3′-dideoxy-3′-thiacytidine, reference compound]			535	0.08				6,688		
Nc1ccn([C@@H]2S[C@H](CO)C=C2F)c(=O)n1 [Compound D-17, (−)-1-[(1S,4R)-2,3-dideoxy-2,3-didehydro-2-fluoro4-thio-β-D-ribofuranosyl]-cytosine]					> 100	> 100	1.3	25	~125	5
Nc1nc(=O)n([C@H]2S[C@@H](CO)C=C2F)cc1F [Compound L-18, (+)-1-[(1S,4R)-2,3-dideoxy-2,3-didehydro-2-fluoro-4-thio-β-L-ribofuranosyl]-5-fluoro-cytosine]					> 100	> 100	0.15			

— patent US6949522B2, “β-2′- or 3′-halonucleosides” (Pharmasset, Inc., priority 2001, dated 2005)
